Experimental findings from article PMC9974930 (Journal of medicinal chemistry, 2023) are described below.

For the data set, the target named is T1, recombinant human sEH (HsEH) (Homo sapiens, UniProt P34913).
T1 sequence (P34913 1-555): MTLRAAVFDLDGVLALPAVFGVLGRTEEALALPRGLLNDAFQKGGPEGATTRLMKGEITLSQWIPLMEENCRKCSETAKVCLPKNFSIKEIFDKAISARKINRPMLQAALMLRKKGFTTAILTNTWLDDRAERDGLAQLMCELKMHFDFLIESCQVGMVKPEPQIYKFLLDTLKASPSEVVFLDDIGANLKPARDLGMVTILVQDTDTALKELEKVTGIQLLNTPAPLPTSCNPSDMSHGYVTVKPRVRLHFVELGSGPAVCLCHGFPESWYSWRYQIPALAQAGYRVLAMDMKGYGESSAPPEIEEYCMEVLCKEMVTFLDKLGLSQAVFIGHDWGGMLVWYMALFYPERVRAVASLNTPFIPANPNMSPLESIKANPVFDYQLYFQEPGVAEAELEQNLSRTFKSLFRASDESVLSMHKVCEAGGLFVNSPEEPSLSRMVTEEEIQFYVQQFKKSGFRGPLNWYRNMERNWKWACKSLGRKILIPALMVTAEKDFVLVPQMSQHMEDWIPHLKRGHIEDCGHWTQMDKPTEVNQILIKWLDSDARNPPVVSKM
Description: biochemical. The conditions noted are these: for LLE (ligand lipophilicity efficiency): LLE = pIC50-cLogP.

pIC50: −log10 of the molar value.

On to `CCN(CC)C(=O)C1CCN(C(=O)c2ccc(NC(=O)N[C@@]34C[C@@H]5C[C@@](C)(C[C@@](C)(C5)C3)C4)c(F)c2)CC1` [A1, 1-(4-(3-((1r,3R,5S,7r)-3,5-Dimethyladamantan-1-yl)ureido)-3-fluorobenzoyl)-N,N-diethylpiperidine-4-carboxamide], for which the “LLE (ligand lipophilicity efficiency)” value came out at 4.954.
Still for that read-out and setting: the same measure for `C[C@]12C[C@@H]3C[C@](C)(C1)C[C@@](NC(=O)Nc1ccc(C(=O)N4CCC(C(=O)NCCO)CC4)cc1F)(C3)C2` [A2, 1-(4-(3-((1r,3R,5S,7r)-3,5-Dimethyladamantan-1-yl)ureido)-3-fluorobenzoyl)-N-(2-hydroxyethyl)piperidine-4-carboxamide]: 6.203; for `CC(O)CNC(=O)C1CCN(C(=O)c2ccc(NC(=O)N[C@@]34C[C@@H]5C[C@@](C)(C[C@@](C)(C5)C3)C4)c(F)c2)CC1` (stereo partly drawn) [A3, 1-(4-(3-((1r,3R,5S,7r)-3,5-Dimethyladamantan-1-yl)ureido)-3-fluorobenzoyl)-N-(2-hydroxypropyl)piperidine-4-carboxamide]: 5.708.
With `C[C@]12C[C@@H]3C[C@](C)(C1)C[C@@](NC(=O)Nc1ccc(C(=O)N4CCCC(C(=O)O)C4)cc1F)(C3)C2` (stereo partly drawn) [A, 1-(4-(3-((1r,3R,5S,7r)-3,5-Dimethyladamantan-1-yl)ureido)-3-fluorobenzoyl)piperidine-3-carboxylic acid], the pIC50 was 8.40 and the “LLE (ligand lipophilicity efficiency)” value is given as 4.979.
For `CCN(CC)C(=O)C1CCCN(C(=O)c2ccc(NC(=O)N[C@]34C[C@@H]5C[C@@](C)(C[C@@](C)(C5)C3)C4)c(F)c2)C1` (stereo partly drawn) [B1, 1-(4-(3-((1r,3R,5S,7S)-3,5-Dimethyladamantan-1-yl)ureido)-3-fluorobenzoyl)-N,N-diethylpiperidine-3-carboxamide], the “LLE (ligand lipophilicity efficiency)” value was determined as 5.617.
Turning to `C[C@]12C[C@@H]3C[C@](C)(C1)C[C@](NC(=O)Nc1ccc(C(=O)N4CCCC(C(=O)NCCO)C4)cc1F)(C3)C2` (stereo partly drawn) [B2, 1-(4-(3-((1r,3R,5S,7S)-3,5-dimethyladamantan-1-yl)ureido)-3-fluorobenzoyl)-N-(2-hydroxyethyl)piperidine-3-carboxamide], the “LLE (ligand lipophilicity efficiency)” value came to 7.069.
Same read-out and setting: as for `CC(O)CNC(=O)C1CCCN(C(=O)c2ccc(NC(=O)N[C@]34C[C@@H]5C[C@@](C)(C[C@@](C)(C5)C3)C4)c(F)c2)C1` (stereo partly drawn) [B3, 1-(4-(3-((1r,3R,5S,7S)-3,5-Dimethyladamantan-1-yl)ureido)-3-fluorobenzoyl)-N-(2-hydroxypropyl)piperidine-3-carboxamide], the figure is 6.779.
As for `C[C@]12C[C@@H]3C[C@](C)(C1)C[C@@](NC(=O)Nc1ccc(C(=O)N4CCCC(C(=O)N5CCN(CCO)CC5)C4)cc1F)(C3)C2` (stereo partly drawn) [B4, 1-((1r,3R,5S,7r)-3,5-Dimethyladamantan-1-yl)-3-(2-fluoro-4-(3-(4-(2-hydroxyethyl)piperazine-1-carbonyl)piperidine-1-carbonyl)phenyl)urea], the “LLE (ligand lipophilicity efficiency)” value was 6.516.
On the same count and under the same terms, as for `CC(C)(C)OC(=O)N1CCN(CCNC(=O)C2CCC(NC(=O)c3ccc(NC(=O)N[C@@]45C[C@@H]6C[C@@](C)(C[C@@](C)(C6)C4)C5)c(F)c3)CC2)CC1` (stereo partly drawn) [C1, Tert-butyl-4-(2-(4-(4-(3-((1r,3R,5S,7r)-3,5-dimethyladamantan-1-yl)ureido)-3-fluorobenzamido)cyclohexane-1-carboxamido)ethyl)piperazine-1-carboxylate], the figure is 2.272; as for `C[C@]12C[C@@H]3C[C@](C)(C1)C[C@@](NC(=O)Nc1ccc(C(=O)NC4CCC(C(=O)N5CCC(CCO)CC5)CC4)cc1F)(C3)C2` (stereo partly drawn) [C2, 4-(3-((1r,3R,5S,7r)-3,5-Dimethyladamantan-1-yl)ureido)-3-fluoro-N-(4-(4-(2-hydroxyethyl)piperidine-1-carbonyl)cyclohexyl)benzamide], 3.655.
Same read-out and setting: the same measure for `C[C@]12C[C@@H]3C[C@](C)(C1)C[C@@](NC(=O)Nc1ccc(C(=O)NC4CCC(C(=O)NCCO)CC4)cc1F)(C3)C2` (stereo partly drawn) [C3, 4-(3-((1r,3R,5S,7r)-3,5-Dimethyladamantan-1-yl)ureido)-3-fluoro-N-(4-((2-hydroxyethyl)carbamoyl)cyclohexyl)benzamide]: 6.100.
On the same count and under the same terms, the same measure for `CC(O)CNC(=O)C1CCC(NC(=O)c2ccc(NC(=O)N[C@@]34C[C@@H]5C[C@@](C)(C[C@@](C)(C5)C3)C4)c(F)c2)CC1` (stereo partly drawn) [C4, 4-(3-((1r,3R,5S,7r)-3,5-Dimethyladamantan-1-yl)ureido)-3-fluoro-N-(4-((2-hydroxypropyl)carbamoyl)cyclohexyl)benzamide]: 5.438.
For the compound `C[C@]12C[C@@H]3C[C@](C)(C1)C[C@@](NC(=O)Nc1ccc(C(=O)NC4CCC(C(=O)N(CCO)CCO)CC4)cc1F)(C3)C2` (stereo partly drawn) [C5, N-(4-(Bis(2-hydroxyethyl)carbamoyl)cyclohexyl)-4-(3-((1r,3R,5S,7r)-3,5-dimethyladamantan-1-yl)ureido)-3-fluorobenzamide], the “LLE (ligand lipophilicity efficiency)” value stood at 5.869.
On to `C[C@]12C[C@@H]3C[C@](C)(C1)C[C@@](NC(=O)Nc1ccc(C(=O)NC4CCC(C(N)=O)CC4)cc1F)(C3)C2` (stereo partly drawn) [C6, N-(4-Carbamoylcyclohexyl)-4-(3-((1r,3R,5S,7r)-3,5-dimethyladamantan-1-yl)ureido)-3-fluorobenzamide], for which the “LLE (ligand lipophilicity efficiency)” value stood at 5.746.
For the compound `C[C@]12C[C@@H]3C[C@](C)(C1)C[C@@](NC(=O)Nc1ccc(C(=O)NC4CCC(C(=O)NC(CO)CO)CC4)cc1F)(C3)C2` (stereo partly drawn) [C7, N-(4-((1,3-Dihydroxypropan-2-yl)carbamoyl)cyclohexyl)-4-(3-((1r,3R,5S,7r)-3,5-dimethyladamantan-1-yl)ureido)-3-fluorobenzamide], the “LLE (ligand lipophilicity efficiency)” value is recorded as 6.555.
Same read-out and setting: as for `C[C@]12C[C@@H]3C[C@](C)(C1)C[C@@](NC(=O)Nc1ccc(C(=O)NC4CCC(C(=O)NC(CO)(CO)CO)CC4)cc1F)(C3)C2` (stereo partly drawn) [C8, N-(4-((1,3-Dihydroxy-2-(hydroxymethyl)propan-2-yl)carbamoyl)cyclohexyl)-4-(3-((1r,3R,5S,7r)-3,5-dimethyladamantan-1-yl)ureido)-3-fluorobenzamide], the figure is 7.653; as for `C[C@]12C[C@@H]3C[C@](C)(C1)C[C@@](NC(=O)Nc1ccc(CN4CCCC(C(N)=O)C4)cc1F)(C3)C2` (stereo partly drawn) [D1, 1-(4-(3-((1r,3R,5S,7r)-3,5-Dimethyladamantan-1-yl)ureido)-3-fluorobenzyl)piperidine −3-carboxamide], 6.464; as for `CN(C)C(=O)C1CCCN(Cc2ccc(NC(=O)N[C@@]34C[C@@H]5C[C@@](C)(C[C@@](C)(C5)C3)C4)c(F)c2)C1` (stereo partly drawn) [D2, 1-(4-(3-((1r,3R,5S,7r)-3,5-Dimethyladamantan-1-yl)ureido)-3-fluorobenzyl)-N,N-dimethylpiperidine-3-carboxamide], 5.354.
Same read-out and setting: the same measure for `CCN(CC)C(=O)C1CCCN(Cc2ccc(NC(=O)N[C@@]34C[C@@H]5C[C@@](C)(C[C@@](C)(C5)C3)C4)c(F)c2)C1` (stereo partly drawn) [D3, 1-(4-(3-((1r,3R,5S,7r)-3,5-Dimethyladamantan-1-yl)ureido)-3-fluorobenzyl)-N,N-diethylpiperidine-3-carboxamide]: 4.957; for `CC(O)CNC(=O)C1CCCN(Cc2ccc(NC(=O)N[C@@]34C[C@@H]5C[C@@](C)(C[C@@](C)(C5)C3)C4)c(F)c2)C1` (stereo partly drawn) [D4, 1-(4-(3-((1r,3R,5S,7r)-3,5-Dimethyladamantan-1-yl)ureido)-3-fluorobenzyl)-N-(2-hydroxypropyl)piperidine-3-carboxamide]: 6.119.
On the same count and under the same terms, the same measure for `C[C@]12C[C@@H]3C[C@](C)(C1)C[C@@](NC(=O)Nc1ccc(CN4CCCC(C(=O)N(CCO)CCO)C4)cc1F)(C3)C2` (stereo partly drawn) [D5, 1-(4-(3-((1r,3R,5S,7r)-3,5-Dimethyladamantan-1-yl)ureido)-3-fluorobenzyl)-N,N-bis(2-hydroxyethyl)piperidine-3-carboxamide]: 6.879.
`C[C@]12C[C@@H]3C[C@](C)(C1)C[C@@](NC(=O)Nc1ccc(CN4CCCC(C(=O)NCCO)C4)cc1F)(C3)C2` (stereo partly drawn) [D6, 1-(4-(3-((1r,3R,5S,7r)-3,5-Dimethyladamantan-1-yl)ureido)-3-fluorobenzyl)-N-(2-hydroxyethyl)piperidine-3-carboxamide]: the “LLE (ligand lipophilicity efficiency)” value is listed as 6.145.
The same measure, in the same setting: as for `C[C@]12C[C@@H]3C[C@](C)(C1)C[C@@](NC(=O)Nc1ccc(CN4CCCC(C(=O)NC(CO)CO)C4)cc1F)(C3)C2` (stereo partly drawn) [D7, N-(1,3-Dihydroxypropan-2-yl)-1-(4-(3-((1r,3R,5S,7r)-3,5-dimethyladamantan-1-yl)ureido)-3-fluorobenzyl)piperidine-3-carboxamide], the figure is 7.008; as for `C[C@]12C[C@@H]3C[C@](C)(C1)C[C@@](NC(=O)Nc1ccc(CN4CCCC(C(=O)NC(CO)(CO)CO)C4)cc1F)(C3)C2` (stereo partly drawn) [D8, N-(1,3-Dihydroxy-2-(hydroxymethyl)propan-2-yl)-1-(4-(3-((1r,3R,5S,7r)-3,5-dimethyladamantan-1-yl)ureido)-3-fluorobenzyl)piperidine-3-carboxamide], 7.992.

The term pIC50 denotes −log10 of the IC50, conventionally taken in molar units.
